Experiments:
healthy adult dogs [1] = test: Glycyrrhizin safety study: systolic blood pressure (oscillometric method); type: in vivo, dog; conditions: for effect on blood pressure, D0 versus any later time point: adult dogs, 0.2, 0.4 and 0.6 mg/kg Bwt/day, 28 days each; for overall mean systolic blood pressure: dogs
Source text: (§1) Dogs. Sixteen privately owned healthy adult dogs, both male and female, were included in the study. In particular, the dogs were Beagles, Brittany spaniels or Dachshunds weighing between 5 and 21 kg. Twelve dogs were females and four dogs were males.
(§2) Glycyrrhizin Source. The glycyrrhizin source was provided by a licorice root extract comprising 12% glycyrrhizin formulated in gelatin capsules. The licorice root extract was commercially obtained from Naturex (Avignon, France), product reference DAB40178.
(§3) Commercially available pharmaceutical grade gelatin capsules (Capsuline, Dania Beach, Florida, US) were filled to capacity with precisely weight mixtures of licorice powder and 100% pure maltodextrin powder (Bulk Powders, Colchester, UK). The weighed combinations of licorice and maltodextrin powders were prepared in such a way that, when mixed together and placed in the capsules, provided the dogs with daily glycyrrhizin doses according to the schedule of 0.2 mg/kg Bwt/day, followed by 0.4 mg/kg Bwt/day, followed by 0.6 mg/kg Bwt/day.
(§4) Dosage. The doses to be administered to each dog were calculated based on five different bodyweight groups. Separate capsules were weighed out for each group. The licorice root extract was mixed with maltodextrin order to deliver the same volume of overall powdered material to each dog. Capsules were fed to the dogs inside a meatball of wet petfood.
(§5) In total, three different doses of glycyrrhizin were fed to the dogs, in each case for 28 days. These dosages were 0.2 mg/kg of Bwt/day, 0.4 mg/kg of Bwt/day, and 0.6 mg/kg of Bwt/day.
(§6) Each of the dogs underwent the following protocol cycle, which was repeated for each of the tested concentrations. The first cycle was dosed at 0.2 mg of glycyrrhizin (Gly)/kg Bwt/day. The second cycle was dosed at 0.4 mg Gly/kg Bwt/day. The third cycle was dosed at 0.6 mg Gly/kg Bwt/day.
[…]: Baseline measurements were taken: blood pressure and potassium, sodium and calcium, creatinine and aldosterone concentrations in the blood and urine.
Day 0: Dosing of licorice began (the concentration of glycyrrhizin is adapted according to the first, second or third cycle of the protocol, as indicated above). One dose was provided to each dog per day, with their morning meal.
Days 1-27: One dose was provided to each dog per day, with their morning meal.
(§7) Days 2, 4, 7, 14, 21 and 28: Blood pressure and potassium, sodium and calcium, creatinine and aldosterone concentrations in the blood and urine measurements were taken.
Day 28: Washout began and the dogs returned to their maintenance diet alone, i.e., no more licorice was fed to them. The washout period lasted two weeks. At days 34 and 41 blood pressure and potassium, sodium and calcium, creatinine and aldosterone concentrations in the blood and urine measurements were taken again.
Protocol Details. The licorice root extract was dosed according to the given glycyrrhizin (Gly) concentrations for each cycle of the protocol in sequence: 0.2 mg/kg Bwt/day, 0.4 mg/kg Bwt/day, and 0.6 mg/kg Bwt/day.
Blood pressure was measured for each animal on multiple occasions, the first reading being discarded. BP was measured via the Oscillometric method. Each measurement, if it was shown that a dog's average blood pressure has risen to a potentially deleterious level (normally >160 mmgHg), could result in removal of a dog from the study (temporarily or permanently), according to veterinarian's discretion. All dogs were habituated to the Oscillometic device and the process of BP measurement before the start of the study. If there was evidence of stress for any dog before or during the BP procedure, the procedure for that dog was stopped and restarted when the dog was calmed again. Where necessary a dog could be given interim intensive habituation. […] Typical blood pressure ranges for the 3 breeds used were known and were considered when judging the normality of the BP measurements taken during the study. […]

[2] = dogs; cited from earlier work
healthy adult dogs [3] = test: Glycyrrhizin safety study: fractional potassium excretion; type: in vivo, dog; conditions: for effect on fractional potassium excretion, D0 versus any later time point: adult dogs, 0.2, 0.4 and 0.6 mg/kg Bwt/day, 28 days each; for overall mean fractional potassium excretion: dogs
Source text: as §1, §2, §3, §4, §5, §6, §7
Small volume blood samples (4 ml) were taken on the days indicated in the protocol description above in order to determine blood potassium, sodium and calcium, creatinine and aldosterone concentration. Free catch urine (minimum 3 ml) was conducted on each day as indicated above in order to determine concentrations of urinary potassium, sodium and calcium. Urinary creatinine concentrations were also measured so that Fractional Excretion Rate (FER) for sodium, potassium and calcium could be calculated.
FER is calculated according to the equation: […]
Statistics: A linear mixed model was used for assessing the effect of Diet (Glycyrrhizin dose). Animal was modelled as random term. Tukey HSD was used for alpha correction for multiple comparisons. Level of significance was set at 5% for two-sided test.
Fractional Potassium Excretion. The results are expressed in percentage of the potassium excreted in the urine as compared to the amount of potassium filtered and retained by the kidneys.

healthy adult dogs [4] = test: Glycyrrhizin safety study: plasma aldosterone concentration; type: in vivo, dog; conditions: adult dogs, 0.2, 0.4 and 0.6 mg/kg Bwt/day, 28 days each
Source text: as §1, §2
Commercially available pharmaceutical grade gelatin capsules (Capsuline, Dania Beach, Florida, US) were filled to capacity with precisely weight mixtures of licorice powder and 100% pure maltodextrin powder (Bulk Powders, Colchester, UK). […]
Dosage. The doses to be administered to each dog were calculated based on five different bodyweight groups. […]
Small volume blood samples (4 ml) were taken on the days indicated in the protocol description above in order to determine blood potassium, sodium and calcium, creatinine and aldosterone concentration. […] Urinary creatinine concentrations were also measured so that Fractional Excretion Rate (FER) for sodium, potassium and calcium could be calculated. […]

[5] = 0.2 mg Gly/kg Bwt/day oral, Day 0
[6] = 0.2 mg Gly/kg Bwt/day oral, Day 2
[7] = 0.2 mg Gly/kg Bwt/day oral, Day 4
[8] = 0.2 mg Gly/kg Bwt/day oral, Day 7
[9] = 0.2 mg Gly/kg Bwt/day oral, Day 14
[10] = 0.2 mg Gly/kg Bwt/day oral, Day 21
[11] = 0.2 mg Gly/kg Bwt/day oral, Day 28
[12] = 0.4 mg Gly/kg Bwt/day oral, Day 0
[13] = 0.4 mg Gly/kg Bwt/day oral, Day 2
[14] = 0.4 mg Gly/kg Bwt/day oral, Day 4
[15] = 0.4 mg Gly/kg Bwt/day oral, Day 7
[16] = 0.4 mg Gly/kg Bwt/day oral, Day 14
[17] = 0.4 mg Gly/kg Bwt/day oral, Day 21
[18] = 0.4 mg Gly/kg Bwt/day oral, Day 28
[19] = 0.6 mg Gly/kg Bwt/day oral, Day 0
[20] = 0.6 mg Gly/kg Bwt/day oral, Day 2
[21] = 0.6 mg Gly/kg Bwt/day oral, Day 4
[22] = 0.6 mg Gly/kg Bwt/day oral, Day 7
[23] = 0.6 mg Gly/kg Bwt/day oral, Day 14
[24] = 0.6 mg Gly/kg Bwt/day oral, Day 21
[25] = 0.6 mg Gly/kg Bwt/day oral, Day 28

With `CC1(C)[C@@H](O[C@H]2O[C@H](C(=O)O)[C@@H](O)[C@H](O)[C@H]2O[C@@H]2O[C@H](C(=O)O)[C@@H](O)[C@H](O)[C@H]2O)CC[C@]2(C)[C@H]3C(=O)C=C4[C@@H]5C[C@@](C)(C(=O)O)CC[C@]5(C)CC[C@@]4(C)[C@]3(C)CC[C@@H]12` [Gly, glycyrrhizin] the “effect on blood pressure, D0 versus any later time point” value (healthy adult dogs [1]) was “no significant difference”, the “effect on blood pressure, D0 versus any later time point” value (healthy adult dogs [1]; listed as Glycyrrhizin) was “no significant impact” and the “overall mean systolic blood pressure” value (healthy adult dogs [1]; [5]) was 120 mmHg. For the same compound, the “overall mean systolic blood pressure” value (healthy adult dogs [1]; [6]) was 127 mmHg, the “overall mean systolic blood pressure” value (healthy adult dogs [1]; [7]) was 125 mmHg and the “overall mean systolic blood pressure” value (healthy adult dogs [1]; [8]) was 126 mmHg. For the same compound, the “overall mean systolic blood pressure” value (healthy adult dogs [1]; [9]) was 126 mmHg, the “overall mean systolic blood pressure” value (healthy adult dogs [1]; [10]) was 122 mmHg and the “overall mean systolic blood pressure” value (healthy adult dogs [1]; [11]) was 121 mmHg. The “overall mean systolic blood pressure” value (healthy adult dogs [1]; [12]) was 118 mmHg, the “overall mean systolic blood pressure” value (healthy adult dogs [1]; [13]) was 117 mmHg and the “overall mean systolic blood pressure” value (healthy adult dogs [1]; [14]) was 119 mmHg. The “overall mean systolic blood pressure” value (healthy adult dogs [1]; [15]) was 125 mmHg, the “overall mean systolic blood pressure” value (healthy adult dogs [1]; [16]) was 122 mmHg and the “overall mean systolic blood pressure” value (healthy adult dogs [1]; [17]) was 120 mmHg. For the same compound, the “overall mean systolic blood pressure” value (healthy adult dogs [1]; [18]) was 124 mmHg, the “overall mean systolic blood pressure” value (healthy adult dogs [1]; [19]) was 125 mmHg and the “overall mean systolic blood pressure” value (healthy adult dogs [1]; [20]) was 119 mmHg. The “overall mean systolic blood pressure” value (healthy adult dogs [1]; [21]) was 123 mmHg, the “overall mean systolic blood pressure” value (healthy adult dogs [1]; [22]) was 125 mmHg and the “overall mean systolic blood pressure” value (healthy adult dogs [1]; [23]) was 123 mmHg. The “overall mean systolic blood pressure” value (healthy adult dogs [1]; [24]) was 124 mmHg, the “overall mean systolic blood pressure” value (healthy adult dogs [1]; [25]) was 122 mmHg and the “Presumed Safe Intake (PSI)” value [2] was 1 mg/kg of complete feed. For the same compound, the “Presumed Safe Intake (PSI), estimated amount per bodyweight” value [2] was ~0.02 mg/kg of bodyweight (Bwt) per day, the “Presumed Safe Intake (PSI), estimated daily amount” value [2] was roughly 0.3 mg/day and the “effect on fractional potassium excretion, D0 versus any later time point” value (healthy adult dogs [3]) was “no significant difference”. The “effect on fractional potassium excretion, D0 versus any later time point” value (healthy adult dogs [3]; listed as Glycyrrhizin) was “no significant impact”, the “overall mean fractional potassium excretion” value (healthy adult dogs [3]; [5]) was 16.54% and the “overall mean fractional potassium excretion” value (healthy adult dogs [3]; [6]) was 15.74%. For the same compound, the “overall mean fractional potassium excretion” value (healthy adult dogs [3]; [7]) was 15.59%, the “overall mean fractional potassium excretion” value (healthy adult dogs [3]; [8]) was 15.06% and the “overall mean fractional potassium excretion” value (healthy adult dogs [3]; [9]) was 13.33%. The “overall mean fractional potassium excretion” value (healthy adult dogs [3]; [10]) was 20.02%, the “overall mean fractional potassium excretion” value (healthy adult dogs [3]; [11]) was 16.54% and the “overall mean fractional potassium excretion” value (healthy adult dogs [3]; [12]) was 16.02%. The “overall mean fractional potassium excretion” value (healthy adult dogs [3]; [13]) was 15.56%, the “overall mean fractional potassium excretion” value (healthy adult dogs [3]; [14]) was 16.02% and the “overall mean fractional potassium excretion” value (healthy adult dogs [3]; [15]) was 15.72%. For the same compound, the “overall mean fractional potassium excretion” value (healthy adult dogs [3]; [16]) was 16.87%, the “overall mean fractional potassium excretion” value (healthy adult dogs [3]; [17]) was 16.09% and the “overall mean fractional potassium excretion” value (healthy adult dogs [3]; [18]) was 16.27%. For the same compound, the “overall mean fractional potassium excretion” value (healthy adult dogs [3]; [19]) was 16.48%, the “overall mean fractional potassium excretion” value (healthy adult dogs [3]; [20]) was 18.08% and the “overall mean fractional potassium excretion” value (healthy adult dogs [3]; [21]) was 17.48%. The “overall mean fractional potassium excretion” value (healthy adult dogs [3]; [22]) was 13.15%, the “overall mean fractional potassium excretion” value (healthy adult dogs [3]; [23]) was 15.64% and the “overall mean fractional potassium excretion” value (healthy adult dogs [3]; [24]) was 14.93%. For the same compound, the “overall mean fractional potassium excretion” value (healthy adult dogs [3]; [25]) was 16.48%, the “effect on plasma aldosterone concentration, D0 versus any later time point” value (healthy adult dogs [4]) was “no significant difference” and the “effect on plasma aldosterone concentration, D0 versus any later time point” value (healthy adult dogs [4]; listed as Glycyrrhizin) was “no significant impact”.
